Source: US20050112573A1, “Method of detecting toxic substance” (priority 2001, published 2005)

System: yeast genes (level of expressed mRNA)
Assay: DNA chip analysis of expressed mRNA of yeast genes after 2 h culture with a toxic chemical substance
Assay type: cell-based, Saccharomyces cerevisiae S288C
Experimental: Yeast (Saccharomyces cerevtisiae S288C (α SUC2mal mel gap2 CUP1)) were cultured at 25° C. on YPD medium (yeast extract 1%, polypepton 2%, glucose 2%). One of toxic chemical substances was added to the cell at logarithmic growth phase, and the cell was further cultured for two hours. Cell was cultured without any chemical substance in the same condition, and was used as control. Concentrations of the chemical substances were defined to inhibit the growth of the yeast but not lead to death.
After the completion of cultivation, the culture was centrifuged to collect the cells. To the cells, sodium acetate buffer (50 mM sodium acetate, 10 mM EDTA, 1% SDS) was added, and the mixture was shaken at 65° C. for five minutes, followed by returning to room temperature, and obtaining the supernatant, which procedure was repeated two times. To the supernatant, ½ amount of a solution of phenol/chloroform was added, and the mixture was centrifuged to give a supernatant, which was added with an equal amount of chloroform, and the mixture was centrifuged to give a supernatant. To the supernatant, an equal amount of isopropanol containing 0.3 M sodium acetate was added, and the mixture was allowed to stand at room temperature for 30 minutes, after which the mixture was centrifuged to give a sediment of the whole RNAs. Seventy % ethanol was added to the sediment, and the mixture was again centrifuged to give a sediment, which was then dried and dissolved in water. mRNA was isolated from the whole RNAs as followings. In view of the fact that a poly A chain is attached to the 3′ terminus of mRNA, a polynucleotide having a poly T structure which was immobilized on the surface of latex beads was used to trap the mRNA, and then the mRNA was washed and eluted with spine column (Oligotex-dT30<Super>mRNA Purification Kit, Takara). Reverse transcription of the mRNA was conducted with a reverse transcriptase (Super Script II Reverse Transcriptase; catalogue No. 18064-014, GibcoBRL) using fluorescence-labeled nucleotides to give cDNAs that were introduced with Cy3-dUTP or Cy5-dUTP during the reverse transcription.
The labeled cDNAs were dissolved in TE buffer (10 mM Tris-HCl/1 mM EDTA, pH8.0), and the solution was dropped on the DNA chip containing the whole genes of yeast (DNA Chip Research Inc. Japan) so that the cDNAs were hybridized on the DNA chip at 65° C. for over 12 hours. The fluoresces intensity of the DNA chip was read with a scanner, and the ratio relative to the fluorescence intensity resulting from the absence of chemical substance was estimated as the following, which is shown in Tables 1 to 9: [formula]
In the Tables, “Intensity” indicated in the rightmost column is a value of the level of expressed mRNA of each gene in control cells as divided by the average level of the expressions of the whole genes.

CCCCC[C@H](O)CC(=O)CCc1ccc(O)c(OC)c1 [(13), gingerol]
level of expressed mRNA in the presence of chemical substance/in its absence (gene YAL012W): 1.1
The level of expressed mRNA in the presence of chemical substance/absence: YAL014C (gene YAL014C): 1.5
The level of expressed mRNA in the presence of chemical substance/absence: YAL017W (gene YAL017W): 2.2
The level of expressed mRNA in the presence of chemical substance/absence: YAL018C (gene YAL018C): 1.3
level of expressed mRNA in the presence of chemical substance/in its absence (gene YAL038W): 1.8
level of expressed mRNA in the presence of chemical substance/in its absence (gene YAL044C): 1.1
The level of expressed mRNA in the presence of chemical substance/absence: YAL049C (gene YAL049C): 1.6
level of expressed mRNA in the presence of chemical substance/in its absence (gene YAL054C): 1.8
The level of expressed mRNA in the presence of chemical substance/absence: YAR047C (gene YAR047C): 1.4
The level of expressed mRNA in the presence of chemical substance/absence: YAR064W (gene YAR064W): 1.1
level of expressed mRNA in the presence of chemical substance/in its absence (gene YAR071W): 0.3
level of expressed mRNA in the presence of chemical substance/in its absence (gene YBL001C): 1.0
The level of expressed mRNA in the presence of chemical substance/absence: YBL044W (gene YBL044W): 0.7
The level of expressed mRNA in the presence of chemical substance/absence: YBL100C (gene YBL100C): 0.9
The level of expressed mRNA in the presence of chemical substance/absence: YBR012C (gene YBR012C): 2.1
The level of expressed mRNA in the presence of chemical substance/absence: YBR013C (gene YBR013C): 2.0
level of expressed mRNA in the presence of chemical substance/in its absence (gene YBR014C): 0.9
level of expressed mRNA in the presence of chemical substance/in its absence (gene YBR023C): 0.5
level of expressed mRNA in the presence of chemical substance/in its absence (gene YBR029C): 1.7
level of expressed mRNA in the presence of chemical substance/in its absence (gene YBR035C): 1.8
level of expressed mRNA in the presence of chemical substance/in its absence (gene YBR050C): 1.3
The level of expressed mRNA in the presence of chemical substance/absence: YBR051W (gene YBR051W): 1.2
The level of expressed mRNA in the presence of chemical substance/absence: YBR063C (gene YBR063C): 1.7
The level of expressed mRNA in the presence of chemical substance/absence: YBR066C (gene YBR066C): 0.6
level of expressed mRNA in the presence of chemical substance/in its absence (gene YBR068C): 2.2
level of expressed mRNA in the presence of chemical substance/in its absence (gene YBR111C): 1.6
The level of expressed mRNA in the presence of chemical substance/absence: YBR124W (gene YBR124W): 0.9
level of expressed mRNA in the presence of chemical substance/in its absence (gene YBR126C): 2.1
The level of expressed mRNA in the presence of chemical substance/absence: YBR129C (gene YBR129C): 1.3
level of expressed mRNA in the presence of chemical substance/in its absence (gene YBR145W): 2.0
The level of expressed mRNA in the presence of chemical substance/absence: YBR162C (gene YBR162C): 0.7
level of expressed mRNA in the presence of chemical substance/in its absence (gene YBR183W): 1.4
level of expressed mRNA in the presence of chemical substance/in its absence (gene YBR222C): 1.6
The level of expressed mRNA in the presence of chemical substance/absence: YBR255W (gene YBR255W): 1.4
The level of expressed mRNA in the presence of chemical substance/absence: YBR281C (gene YBR281C): 1.2
The level of expressed mRNA in the presence of chemical substance/absence: YBR287W (gene YBR287W): 3.4
level of expressed mRNA in the presence of chemical substance/in its absence (gene YBR299W): 0.7
level of expressed mRNA in the presence of chemical substance/in its absence (gene YCL009C): 1.6
The level of expressed mRNA in the presence of chemical substance/absence: YCL042W (gene YCL042W): 7.5
The level of expressed mRNA in the presence of chemical substance/absence: YCL044C (gene YCL044C): 1.7
The level of expressed mRNA in the presence of chemical substance/absence: YCL056C (gene YCL056C): 1.3
level of expressed mRNA in the presence of chemical substance/in its absence (gene YCL064C): 1.6
The level of expressed mRNA in the presence of chemical substance/absence: YCR007C (gene YCR007C): 1.5
level of expressed mRNA in the presence of chemical substance/in its absence (gene YCR037C): 1.3
level of expressed mRNA in the presence of chemical substance/in its absence (gene YCR048W): 1.3
level of expressed mRNA in the presence of chemical substance/in its absence (gene YCR098C): 1.4
level of expressed mRNA in the presence of chemical substance/in its absence (gene YDL022W): 1.5
The level of expressed mRNA in the presence of chemical substance/absence: YDL046W (gene YDL046W): 1.5
The level of expressed mRNA in the presence of chemical substance/absence: YDL089W (gene YDL089W): 1.9
The level of expressed mRNA in the presence of chemical substance/absence: YDL173W (gene YDL173W): 1.7
The level of expressed mRNA in the presence of chemical substance/absence: YDL193W (gene YDL193W): 1.4
The level of expressed mRNA in the presence of chemical substance/absence: YDL233W (gene YDL233W): 1.8
level of expressed mRNA in the presence of chemical substance/in its absence (gene YDR009W): 1.2
level of expressed mRNA in the presence of chemical substance/in its absence (gene YDR019C): 1.0
The level of expressed mRNA in the presence of chemical substance/absence: YDR071C (gene YDR071C): 1.3
The level of expressed mRNA in the presence of chemical substance/absence: YDR078C (gene YDR078C): 1.1
The level of expressed mRNA in the presence of chemical substance/absence: YDR090C (gene YDR090C): 0.8
